Columns and labels:
[1] = tested on: tolC gene-deficient strain JW5503/pCA24; assay: Growth test of serially diluted cell suspensions spotted on L agar medium containing cysteine; type: cell-based, Escherichia coli; conditions: L agar with 10, 15, 20 mM cysteine, 37° C. overnight; FIG. 1
From the text: Since a strain which is deficient in a part of or the entire tolC gene was obtained by the screening of the Keio Collection, growth of the gene-deficient strain was observed on the agar medium containing cysteine of different concentrations in order to analyze the sensitivity of that strain to cysteine in more detail. The strain which is deficient in a part of or the entire tolC gene used here was the JW5503 strain (Keio collection), and the parent strain thereof was the BW25113 strain (Andreas Haldimann, A. and Wanner, B. L., J. Bacteriol., 2001 November; 183 (21):6384-6393). The plasmid carrying the tolC gene for a complementation experiment was pTolC (ASKA clone, Kitagawa, M, et al., 2005; DNA Res., 12:291-299), and the vector used as the base thereof was pCA24 (vector for ASKA clone, Kitagawa, M, et al., 2005, DNA Res., 12:291-299).
The bacteria containing each of the plasmids were each inoculated into 5 ml of L medium (10 g/L of Bacto trypton, 5 g/L of Bacto yeast extract, 5 g/L of NaCl), and cultured overnight at 37° C. […]

wild-type strains = assay: Growth on LB agar media containing cysteine (Keio collection screening); type: cell-based, E. coli BW25113; conditions: overnight at 37° C.
Experimental: The 3,985 clones of the Keio collection were cultured at 37° C. for 15 hours in 0.5 ml of LB liquid medium. This culture medium was stamped on LB agar media containing cysteine at different concentrations (0, 15, 20, 25 mM), and culture was performed overnight at 37° C. Clones that were sensitive to cysteine at a concentration not higher than the growth inhibition concentration of cysteine for wild-type strains (20 mM) were visually selected. […] A strain which is deficient in a part of or the entire tolC gene was obtained as a clone showing particularly strong and distinctive cysteine sensitivity among the above candidates. TolC is an example of a protein called a porin, which localizes in the outer membrane and forms a channel for substance transportation via the outer membrane. Although the presence of many other porins was known for E. coli, TolC was the only porin selected by this screening, among the several candidates considered showing strong cysteine sensitivity.

[2] = tested on: tolC-deficient JW5503 strain (BW25113ΔtolC); assay: Cross streak method, growth inhibition (antibacterial) width; type: cell-based, Escherichia coli; conditions: L agar, overnight at 30° C.
Experimental: (§1) Influence of a tolC gene deficiency on N-acetylserine (NAS) and O-acetylserine (OAS) sensitivity was investigated in a strain which is deficient in a part of or the entire tolC gene by the cross streak method. In order to compare growth inhibition by NAS (2 M), OAS (2 M), L-cysteine (2 M) and L-serine (1 M), the tolC-deficient JW5503 strain, and the wild-type BW25113 strain used as a control, were cultured overnight in the L liquid medium, and each culture medium was streaked on the L agar medium with a platinum loop. A strip-shaped filter paper onto which each of the aforementioned reagents was dropped, was placed on each of the strains in a direction perpendicular to the streaking direction, and the strains were cultured overnight at 30° C. After the culture, lengths of the filter paper on which growth of the bacteria was inhibited (antibacterial widths) were measured, and the antibacterial activities of the regents on both the strains were compared.

wild-type BW25113 strain = assay: as above; type: cell-based, Escherichia coli; conditions: L agar, overnight at 30° C.
Experimental: as §1

[3] = reagent 2 M on filter paper strip
[4] = reagent 1 M on filter paper strip

Row | SMILES | cysteine sensitivity of growth compared with the control strain BW25113/pCA24 [1] | growth inhibition concentration of cysteine for wild-type strains (wild-type strains) [mM] | Growth inhibition width [2, 3] [mm] | Growth inhibition width (wild-type BW25113 strain; [3]) [mm] | Growth inhibition width [2, 4] [mm] | Growth inhibition width (wild-type BW25113 strain; [4]) [mm]
1 | N[C@@H](CS)C(=O)O [L-Cysteine] | marked cysteine sensitivity | 20 | 5 | <1 |  | 
2 | N[C@@H](CO)C(=O)O [L-Serine] |  |  |  |  | 0 | 0
3 | CC(=O)N[C@@H](CO)C(=O)O [N-Acetylserine] |  |  | 10 | <2 |  | 
4 | CC(=O)OC[C@H](N)C(=O)O [O-Acetylserine] |  |  | 4 | <1 |  | 
